Measurements taken from patent US20210371351A1, “MIXTURES COMPRISING AT LEAST TWO DIFFERENT NITRIFICATION INHIBITORS SELECTED FROM 2-(3,4-DIMETHYL-1H-PYRAZOL-1-YL)SUCCINIC ACID (DMPSA), 3,4-DIMETHYL PYRAZOLIUM GLYCOLATE (DMPG) AND OTHER COMPOUNDS” (BASF SE, priority 2017, published 2021).

Tested on: nitrification
Test: Example 5: soil incubation in bottles with ammonium sulfate, DMPSA, DCD or mixtures, 5 to 15° C., 0 up to 56 days; recovery NH4 (RE/RC), net recovery NH4 (NE/NC), inhibition of NO3 formation (IE/IC, Böhland; Colby)
Procedure: 100 g soil is filled into 500 ml plastic bottles (e.g. soil sampled from the field) and is moistened to 50% water holding capacity. The soil is incubated at 20° C. for two weeks to activate the microbial biomass. 1 ml test solution, containing the compositions and mixtures of the invention in the appropriate concentration, or DMSO and 5 to 10 mg nitrogen in the form of ammoniumsulfate-N is added to the soil and everything mixed well. Bottles are capped but loosely to allow air exchange. The bottles are then incubated at 5 to 15° C. for 0 up to 56 days.
For analysis, 300 ml of a 1% K2SO4-solution is added to the bottle containing the soil and shaken for 2 hrs in a horizontal shaker at 150 rpm. Then the whole solution is filtered through a Macherey-Nagel Filter MN 807′/. Ammonium and nitrate content is then analyzed in the filtrate in an autoanalyzer at 550 nm (Merck, AA11).
The Böhland equation is described in Böhland, H., et al. (1973) “Mittel zur Hemmung bzw. Regelung der Nitrifikation von Ammoniumstickstoff in Kulturböden”. DDR-Wirtschaftspatent (Economic patent of the German Democratic Republic) C 05c 169 727. Cited by: Peschke, H. (1985) “Zur Bewertung der inhibierenden Wirkung von Nitrifiziden im Boden”, Zbl. Mikrobiol. 140, pp. 583-588.

In the case of `N#CN=C(N)N` [DCD, dicyandiamide], the “IE inhibition of NO3 formation” value (IT5° C., DAT10, % a.i.: DMPSA 0.5, DCD 1, DMPSA + DCD 0.5 + 1 (1:2)) is reported as 10, the “IE inhibition of NO3 formation” value (IT5° C., DAT10, % a.i.: DMPSA 0.5, DCD 3, DMPSA + DCD 0.5 + 3 (1:6)) is reported as 43 and the “IE inhibition of NO3 formation” value (IT5° C., DAT20, % a.i.: DMPSA 0.5, DCD 1, DMPSA + DCD 0.5 + 1 (1:2)) is reported as −5. For the same molecule, the “IE inhibition of NO3 formation” value (IT5° C., DAT20, % a.i.: DMPSA 0.5, DCD 3, DMPSA + DCD 0.5 + 3 (1:6)) was 32, the “IE (inhibition of NO3 formation, Böhland)” value (IT5° C., DAT28, % a.i. DMPSA 0.25, DCD 1) was 65 and the “IE (inhibition of NO3 formation, Böhland)” value (IT5° C., DAT28, % a.i. DMPSA 0.25, DCD 3) was 73. The “IE (inhibition of NO3 formation, Böhland)” value (IT5° C., DAT28, % a.i. DMPSA 0.30, DCD 0.05) was 1, the “IE (inhibition of NO3 formation, Böhland)” value (IT5° C., DAT28, % a.i. DMPSA 0.50, DCD 0.08) was 12 and the “IE inhibition of NO3 formation” value (IT5° C., DAT28, % a.i.: DMPSA 0.50, DCD 0.0125, DMPSA + DCD 0.50 + 0.0125 (40:1)) was −7. For the same molecule, the “IE inhibition of NO3 formation” value (IT5° C., DAT28, % a.i.: DMPSA 0.50, DCD 0.0143, DMPSA + DCD 0.50 + 0.0143 (35:1)) was −2, the “IE inhibition of NO3 formation” value (IT5° C., DAT28, % a.i.: DMPSA 0.50, DCD 0.0167, DMPSA + DCD 0.50 + 0.0167 (30:1)) was 0 and the “IE inhibition of NO3 formation” value (IT5° C., DAT30, % a.i.: DMPSA 0.5, DCD 1, DMPSA + DCD 0.5 + 1 (1:2)) was 70. The “IE inhibition of NO3 formation” value (IT5° C., DAT30, % a.i.: DMPSA 0.5, DCD 3, DMPSA + DCD 0.5 + 3 (1:6)) was 113, the “IE (inhibition of NO3 formation, Böhland)” value (IT5° C., DAT42, % a.i. DMPSA 0.25, DCD 1) was 63 and the “IE (inhibition of NO3 formation, Böhland)” value (IT5° C., DAT42, % a.i. DMPSA 0.25, DCD 3) was 82. The “IE (inhibition of NO3 formation, Böhland)” value (IT5° C., DAT42, % a.i. DMPSA 0.30, DCD 0.05) was 7, the “IE (inhibition of NO3 formation, Böhland)” value (IT5° C., DAT42, % a.i. DMPSA 0.50, DCD 0.08) was 18 and the “IE (inhibition of NO3 formation, Böhland)” value (IT5° C., DAT56, % a.i. DMPSA 0.25, DCD 1) was 57. For the same molecule, the “IE (inhibition of NO3 formation, Böhland)” value (IT5° C., DAT56, % a.i. DMPSA 0.25, DCD 3) was 74, the “IE (inhibition of NO3 formation, Böhland)” value (IT5° C., DAT56, % a.i. DMPSA 0.30, DCD 0.05) was 13 and the “IE (inhibition of NO3 formation, Böhland)” value (IT5° C., DAT56, % a.i. DMPSA 0.50, DCD 0.08) was −1. For the same molecule, the “IE inhibition of NO3 formation” value (IT10° C., DAT10, % a.i.: DMPSA 0.5, DCD 1, DMPSA + DCD 0.5 + 1 (1:2)) was 18, the “IE inhibition of NO3 formation” value (IT10° C., DAT10, % a.i.: DMPSA 0.5, DCD 3, DMPSA + DCD 0.5 + 3 (1:6)) was 59 and the “IE inhibition of NO3 formation” value (IT10° C., DAT20, % a.i.: DMPSA 0.5, DCD 1, DMPSA + DCD 0.5 + 1 (1:2)) was 15. For the same molecule, the “IE inhibition of NO3 formation” value (IT10° C., DAT20, % a.i.: DMPSA 0.5, DCD 3, DMPSA + DCD 0.5 + 3 (1:6)) was 24, the “IE (inhibition of NO3 formation, Böhland)” value (IT10° C., DAT28, % a.i. DMPSA 0.25, DCD 1) was 47 and the “IE (inhibition of NO3 formation, Böhland)” value (IT10° C., DAT28, % a.i. DMPSA 0.25, DCD 3) was 64. For the same molecule, the “IE (inhibition of NO3 formation, Böhland)” value (IT10° C., DAT28, % a.i. DMPSA 0.30, DCD 0.05) was 4, the “IE (inhibition of NO3 formation, Böhland)” value (IT10° C., DAT28, % a.i. DMPSA 0.50, DCD 0.08) was 2 and the “IE inhibition of NO3 formation” value (IT10° C., DAT28, % a.i.: DMPSA 0.50, DCD 0.0125, DMPSA + DCD 0.50 + 0.0125 (40:1)) was 1. For the same molecule, the “IE inhibition of NO3 formation” value (IT10° C., DAT28, % a.i.: DMPSA 0.50, DCD 0.0143, DMPSA + DCD 0.50 + 0.0143 (35:1)) was −3, the “IE inhibition of NO3 formation” value (IT10° C., DAT28, % a.i.: DMPSA 0.50, DCD 0.0167, DMPSA + DCD 0.50 + 0.0167 (30:1)) was −1 and the “IE inhibition of NO3 formation” value (IT10° C., DAT30, % a.i.: DMPSA 0.5, DCD 1, DMPSA + DCD 0.5 + 1 (1:2)) was 47. The “IE inhibition of NO3 formation” value (IT10° C., DAT30, % a.i.: DMPSA 0.5, DCD 3, DMPSA + DCD 0.5 + 3 (1:6)) was 55, the “IE (inhibition of NO3 formation, Böhland)” value (IT10° C., DAT42, % a.i. DMPSA 0.25, DCD 1) was 51 and the “IE (inhibition of NO3 formation, Böhland)” value (IT10° C., DAT42, % a.i. DMPSA 0.25, DCD 3) was 64. The “IE (inhibition of NO3 formation, Böhland)” value (IT10° C., DAT42, % a.i. DMPSA 0.30, DCD 0.05) was −1, the “IE (inhibition of NO3 formation, Böhland)” value (IT10° C., DAT42, % a.i. DMPSA 0.50, DCD 0.08) was −1 and the “IE (inhibition of NO3 formation, Böhland)” value (IT10° C., DAT56, % a.i. DMPSA 0.25, DCD 1) was 19. The “IE (inhibition of NO3 formation, Böhland)” value (IT10° C., DAT56, % a.i. DMPSA 0.25, DCD 3) was 29, the “IE (inhibition of NO3 formation, Böhland)” value (IT10° C., DAT56, % a.i. DMPSA 0.30, DCD 0.05) was −3 and the “IE (inhibition of NO3 formation, Böhland)” value (IT10° C., DAT56, % a.i. DMPSA 0.50, DCD 0.08) was 0. For the same molecule, the “IE inhibition of NO3 formation” value (IT15° C., DAT10, % a.i.: DMPSA 0.5, DCD 1, DMPSA + DCD 0.5 + 1 (1:2)) was 34, the “IE inhibition of NO3 formation” value (IT15° C., DAT10, % a.i.: DMPSA 0.5, DCD 3, DMPSA + DCD 0.5 + 3 (1:6)) was 55 and the “IE inhibition of NO3 formation” value (IT15° C., DAT20, % a.i.: DMPSA 0.5, DCD 1, DMPSA + DCD 0.5 + 1 (1:2)) was 47. The “IE inhibition of NO3 formation” value (IT15° C., DAT20, % a.i.: DMPSA 0.5, DCD 3, DMPSA + DCD 0.5 + 3 (1:6)) was 64, the “IE (inhibition of NO3 formation, Böhland)” value (IT15° C., DAT28, % a.i. DMPSA 0.25, DCD 1) was 27 and the “IE (inhibition of NO3 formation, Böhland)” value (IT15° C., DAT28, % a.i. DMPSA 0.25, DCD 3) was 46. The “IE inhibition of NO3 formation” value (IT15° C., DAT28, % a.i.: DMPSA 0.30, DCD 0.05, DMPSA + DCD 0.30 + 0.05 (6:1)) was 5, the “IE inhibition of NO3 formation” value (IT15° C., DAT28, % a.i.: DMPSA 0.50, DCD 0.0125, DMPSA + DCD 0.50 + 0.0125 (40:1)) was 2 and the “IE inhibition of NO3 formation” value (IT15° C., DAT28, % a.i.: DMPSA 0.50, DCD 0.0143, DMPSA + DCD 0.50 + 0.0143 (35:1)) was 1. For the same molecule, the “IE inhibition of NO3 formation” value (IT15° C., DAT28, % a.i.: DMPSA 0.50, DCD 0.0167, DMPSA + DCD 0.50 + 0.0167 (30:1)) was 1, the “IE inhibition of NO3 formation” value (IT15° C., DAT28, % a.i.: DMPSA 0.50, DCD 0.08, DMPSA + DCD 0.50 + 0.08 (6.25:1)) was 2 and the “IE inhibition of NO3 formation” value (IT15° C., DAT30, % a.i.: DMPSA 0.5, DCD 1, DMPSA + DCD 0.5 + 1 (1:2)) was 42. The “IE inhibition of NO3 formation” value (IT15° C., DAT30, % a.i.: DMPSA 0.5, DCD 3, DMPSA + DCD 0.5 + 3 (1:6)) was 59, the “IE (inhibition of NO3 formation, Böhland)” value (IT15° C., DAT42, % a.i. DMPSA 0.25, DCD 1) was 12 and the “IE (inhibition of NO3 formation, Böhland)” value (IT15° C., DAT42, % a.i. DMPSA 0.25, DCD 3) was 21. The “IE inhibition of NO3 formation” value (IT15° C., DAT42, % a.i.: DMPSA 0.30, DCD 0.05, DMPSA + DCD 0.30 + 0.05 (6:1)) was 2, the “IE inhibition of NO3 formation” value (IT15° C., DAT42, % a.i.: DMPSA 0.50, DCD 0.08, DMPSA + DCD 0.50 + 0.08 (6.25:1)) was 3 and the “IE (inhibition of NO3 formation, Böhland)” value (IT15° C., DAT56, % a.i. DMPSA 0.25, DCD 1) was 1. The “IE (inhibition of NO3 formation, Böhland)” value (IT15° C., DAT56, % a.i. DMPSA 0.25, DCD 3) was 3, the “IE inhibition of NO3 formation” value (IT15° C., DAT56, % a.i.: DMPSA 0.30, DCD 0.05, DMPSA + DCD 0.30 + 0.05 (6:1)) was 16 and the “IE inhibition of NO3 formation” value (IT15° C., DAT56, % a.i.: DMPSA 0.50, DCD 0.08, DMPSA + DCD 0.50 + 0.08 (6.25:1)) was 13.
